Test system: 922993-354-T-J3-PDC complex spheroids, viability, % test/control
Test: Anticancer human tumor 922993-354-T-J3-PDC patient-derived endometrial carcinoma cell line growth inhibition [CLK]
Settings: for IC50: curve of first compound; for viability, T/C: stronger effect = lower value; active = viability on the fitted dose curve at most 10% of control; inactive = the rest
Method in brief: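 Multi-cell-type spheroids combined patient-derived tumor cells with HUVEC endothelial cells and human mesenchymal stem cells. Paired agents were dosed in half-log steps down from about clinical Cmax, or from 10 microM where Cmax was unknown.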

[1] = second compound 0.0316 µM, first compound 0.0316 µM
[2] = second compound 0.0316 µM, first compound 0.1 µM
[3] = second compound 0.1 µM, first compound 0.0316 µM
[4] = second compound 0.1 µM, first compound 0.1 µM
[5] = second compound 0.316 µM, first compound 0.0316 µM
[6] = second compound 0.316 µM, first compound 0.1 µM
[7] = second compound 1 µM, first compound 0.0316 µM
[8] = second compound 1 µM, first compound 0.1 µM
[9] = second compound 3.16 µM, first compound 0.0316 µM
[10] = second compound 3.16 µM, first compound 0.1 µM
[11] = second compound 10 µM, first compound 0.0316 µM
[12] = second compound 10 µM, first compound 0.1 µM
[13] = second compound 0.0316 µM, first compound 0.316 µM
[14] = second compound 0.0316 µM, first compound 1 µM
[15] = second compound 0.0316 µM, first compound 3.16 µM
[16] = second compound 0.0316 µM, first compound 10 µM
[17] = second compound 0.1 µM, first compound 0.316 µM
[18] = second compound 0.1 µM, first compound 1 µM
[19] = second compound 0.1 µM, first compound 3.16 µM
[20] = second compound 0.1 µM, first compound 10 µM
[21] = second compound 0.316 µM, first compound 0.316 µM
[22] = second compound 0.316 µM, first compound 1 µM
[23] = second compound 0.316 µM, first compound 3.16 µM
[24] = second compound 0.316 µM, first compound 10 µM
[25] = second compound 1 µM, first compound 0.316 µM
[26] = second compound 1 µM, first compound 1 µM
[27] = second compound 1 µM, first compound 3.16 µM
[28] = second compound 1 µM, first compound 10 µM
[29] = second compound 3.16 µM, first compound 0.316 µM
[30] = second compound 3.16 µM, first compound 1 µM
[31] = second compound 3.16 µM, first compound 3.16 µM
[32] = second compound 3.16 µM, first compound 10 µM
[33] = second compound 10 µM, first compound 0.316 µM
[34] = second compound 10 µM, first compound 1 µM
[35] = second compound 10 µM, first compound 3.16 µM
[36] = second compound 10 µM, first compound 10 µM
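Also: spheroids exposed to the agents for 7 days before readout.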

Cn1ncnc1[C@H]1c2n[nH]c(=O)c3cc(F)cc(c23)N[C@@H]1c1ccc(F)cc1 + CNC(=O)c1ccc(Nc2nc(OC3CCCC3)c3c(-c4ccc5nc(C)oc5c4)c[nH]c3n2)c(OC)c1
< 0.316 nM: IC50 (second compound 1 µM) | IC50 (second compound 3.16 µM) | IC50 (second compound 10 µM)
inactive: viability, T/C (second compound 0.0316 µM, first compound 0.000316 µM) 92% | viability, T/C (second compound 0.0316 µM, first compound 0.001 µM) 99.2% | viability, T/C (second compound 0.0316 µM, first compound 0.00316 µM) 88.9% | viability, T/C (second compound 0.0316 µM, first compound 0.01 µM) 104% | viability, T/C [1] 97.6% | viability, T/C [2] 84.6% | viability, T/C (second compound 0.1 µM, first compound 0.000316 µM) 109% | viability, T/C (second compound 0.1 µM, first compound 0.001 µM) 114% | viability, T/C (second compound 0.1 µM, first compound 0.00316 µM) 106% | viability, T/C (second compound 0.1 µM, first compound 0.01 µM) 104% | viability, T/C [3] 113% | viability, T/C [4] 94.4% | viability, T/C (second compound 0.316 µM, first compound 0.000316 µM) 77.3% | viability, T/C (second compound 0.316 µM, first compound 0.001 µM) 64.4% | viability, T/C (second compound 0.316 µM, first compound 0.00316 µM) 56.6% | viability, T/C (second compound 0.316 µM, first compound 0.01 µM) 73.2% | viability, T/C [5] 76.1% | viability, T/C [6] 57.2% | viability, T/C (second compound 1 µM, first compound 0.000316 µM) 36.9% | viability, T/C (second compound 1 µM, first compound 0.001 µM) 34% | viability, T/C (second compound 1 µM, first compound 0.00316 µM) 32.4% | viability, T/C (second compound 1 µM, first compound 0.01 µM) 33.9% | viability, T/C [7] 32.4% | viability, T/C [8] 27.1% | viability, T/C (second compound 3.16 µM, first compound 0.000316 µM) 28.9% | viability, T/C (second compound 3.16 µM, first compound 0.001 µM) 33.7% | viability, T/C (second compound 3.16 µM, first compound 0.00316 µM) 32.1% | viability, T/C (second compound 3.16 µM, first compound 0.01 µM) 30.8% | viability, T/C [9] 28% | viability, T/C [10] 21% | viability, T/C (second compound 10 µM, first compound 0.000316 µM) 28.8% | viability, T/C (second compound 10 µM, first compound 0.001 µM) 34.2% | viability, T/C (second compound 10 µM, first compound 0.00316 µM) 31.2% | viability, T/C (second compound 10 µM, first compound 0.01 µM) 28.8% | viability, T/C [11] 24.1% | viability, T/C [12] 20.8%
> 100 nM: IC50 (second compound 0.0316 µM) | IC50 (second compound 0.1 µM) | IC50 (second compound 0.316 µM)

Nc1ccn(C2OC(CO)C(O)C2(F)F)c(=O)n1 (stereo unspecified) + CNC(=O)c1ccc(Nc2nc(OC3CCCC3)c3c(-c4ccc5nc(C)oc5c4)c[nH]c3n2)c(OC)c1
< 31.6 nM: IC50 (second compound 0.0316 µM) | IC50 (second compound 0.1 µM) | IC50 (second compound 0.316 µM) | IC50 (second compound 1 µM) | IC50 (second compound 3.16 µM) | IC50 (second compound 10 µM)
inactive: viability, T/C [1] 15.7% | viability, T/C [2] 17.5% | viability, T/C [13] 18% | viability, T/C [14] 16.6% | viability, T/C [15] 15.5% | viability, T/C [16] 18.3% | viability, T/C [3] 17.9% | viability, T/C [4] 16.2% | viability, T/C [17] 15.7% | viability, T/C [18] 14.9% | viability, T/C [19] 12.5% | viability, T/C [20] 17.3% | viability, T/C [5] 15.7% | viability, T/C [6] 15.5% | viability, T/C [21] 16.5% | viability, T/C [22] 18.1% | viability, T/C [23] 16.9% | viability, T/C [24] 17.2% | viability, T/C [7] 14.7% | viability, T/C [8] 14.6% | viability, T/C [25] 12.9% | viability, T/C [26] 13.3% | viability, T/C [27] 14.8% | viability, T/C [28] 13.2% | viability, T/C [9] 13.6% | viability, T/C [10] 15.8% | viability, T/C [29] 11.8% | viability, T/C [30] 12.4% | viability, T/C [31] 12.9% | viability, T/C [32] 13.1% | viability, T/C [11] 13% | viability, T/C [12] 12.5% | viability, T/C [33] 10.8% | viability, T/C [34] 11.6% | viability, T/C [35] 12.7% | viability, T/C [36] 11.4%

O=C(c1cc(Cc2n[nH]c(=O)c3ccccc23)ccc1F)N1CCN(C(=O)C2CC2)CC1 + CNC(=O)c1ccc(Nc2nc(OC3CCCC3)c3c(-c4ccc5nc(C)oc5c4)c[nH]c3n2)c(OC)c1
< 31.6 nM: IC50 (second compound 1 µM) | IC50 (second compound 3.16 µM) | IC50 (second compound 10 µM)
inactive: viability, T/C [1] 99.4% | viability, T/C [2] 106% | viability, T/C [13] 101% | viability, T/C [14] 106% | viability, T/C [15] 110% | viability, T/C [16] 101% | viability, T/C [3] 104% | viability, T/C [4] 107% | viability, T/C [17] 98.3% | viability, T/C [18] 105% | viability, T/C [19] 111% | viability, T/C [20] 101% | viability, T/C [5] 73.5% | viability, T/C [6] 72.1% | viability, T/C [21] 67.1% | viability, T/C [22] 66.5% | viability, T/C [23] 66% | viability, T/C [24] 51.8% | viability, T/C [7] 36.1% | viability, T/C [8] 38.5% | viability, T/C [25] 32.3% | viability, T/C [26] 35.6% | viability, T/C [27] 44.1% | viability, T/C [28] 39% | viability, T/C [9] 32.2% | viability, T/C [10] 36.8% | viability, T/C [29] 25.4% | viability, T/C [30] 34% | viability, T/C [31] 28.4% | viability, T/C [32] 33.5% | viability, T/C [11] 34.1% | viability, T/C [12] 24.7% | viability, T/C [33] 31.5% | viability, T/C [34] 34.2% | viability, T/C [35] 34.8% | viability, T/C [36] 33.8%
> 10000 nM: IC50 (second compound 0.0316 µM) | IC50 (second compound 0.1 µM) | IC50 (second compound 0.316 µM)
